For this assay, the system named is ZIKV replicon in Vero cells. Put plainly: ZIKV Replication Inhibition Assay (replicon, NanoLuc). The note with it: Zika virus, Vero, 72 h, read-out: Zika Replicon EC50. In general terms: A replicon is a self-replicating genome or part of one, used to study replication in cells.

Counter-ions that a name gives are not always drawn.

The term EC50 denotes the midpoint of the concentration-response curve. Take `Cc1nc(OCCO)ncc1-c1ccc(C[n+]2cc([N-]C(=O)Nc3cccc(C(F)(F)F)c3)on2)cc1` [Example 89, (3-(4-(2-(2-hydroxyethoxy)-4-methylpyrimidin-5-yl)benzyl)-1,2,3-oxadiazol-3-ium-5-yl)((3-(trifluoromethyl)phenyl)carbamoyl)amide]: the EC50 lay in the range of 100 to 1000 nM.
As to `Cc1nn(C)cc1-c1ccc(C[n+]2cc([N-]C(=O)Nc3cccc(C(F)(F)F)c3)on2)cc1` [Example 96, (3-(4-(1,3-dimethyl-1H-pyrazol-4-yl)benzyl)-1,2,3-oxadiazol-3-ium-5-yl)((3-(trifluoromethyl)phenyl)carbamoyl)amide], the EC50 is 100 to 1000 nM.
In the case of `CC(c1ccccc1)[n+]1cc([N-]C(=O)Nc2cccc(C(F)(F)F)c2)on1` (centres unmarked) [Example 38, (3-(1-phenylethyl)-1,2,3-oxadiazol-3-ium-5-yl)((3-(trifluoromethyl)phenyl)carbamoyl)amide], the EC50 was in the range of 1000 to 20000 nM.
For the compound `Cc1noc(C)c1-c1ccc(C[n+]2cc([N-]C(=O)Nc3nccc(C(F)(F)F)n3)on2)nc1` [Example 171, (3-((5-(3,5-dimethylisoxazol-4-yl)pyridin-2-yl)methyl)-1,2,3-oxadiazol-3-ium-5-yl)((4-(trifluoromethyl)pyrimidin-2-yl)carbamoyl)amide], the EC50 is 1000 to 20000 nM.
The value for `O=C([N-]c1on[n+](Cc2ccccc2)c1Cl)Nc1cccc(C(F)(F)F)c1` [Example 24, (3-Benzyl-4-chloro-1,2,3-oxadiazol-3-ium-5-yl)((3-(trifluoromethyl)phenyl)carbamoyl)amide] was more than 20000 nM; that for `O=C([N-]c1c[n+](C2(c3ccccc3)CC2)no1)Nc1cccc(C(F)(F)F)c1` [Example 25, (3-(1-phenylcyclopropyl)-1,2,3-oxadiazol-3-ium-5-yl)((3-(trifluoromethyl)phenyl)carbamoyl)amide] was 1000 to 20000 nM.
For `O=C([N-]c1c[n+](Cc2ccc(-c3ccsc3)cc2)no1)Nc1cccc(C(F)(F)F)c1` [Example 20, (3-(4-(thiophen-3-yl)benzyl)-1,2,3-oxadiazol-3-ium-5-yl)((3(trifluoromethyl)phenyl)carbamoyl)amide] the value was 100 to 1000 nM; for `Cc1ncncc1-c1cccc(C[n+]2cc([N-]C(=O)Nc3cccc(C(F)(F)F)c3)on2)c1` [Example 83, (3-(3-(4-methylpyrimidin-5-yl)benzyl)-1,2,3-oxadiazol-3-ium-5-yl)((3-(trifluoromethyl)phenyl)carbamoyl)amide], 100 to 1000 nM.
The value for `CC(Cc1ccccc1)[n+]1cc([N-]C(=O)Nc2ncc(C(F)(F)F)s2)on1` (centres unmarked) [Example 4, (3-(1-phenylpropan-2-yl)-1,2,3-oxadiazol-3-ium-5-yl)((5-(trifluoromethyl)thiazol-2-yl)carbamoyl)amide] was 1000 to 20000 nM.
`Cc1ncncc1-c1ccc([C@H](C)[n+]2cc([N-]C(=O)Nc3cccc(C(F)(F)F)c3)on2)cc1` [Example 79, (S)-(3-(1-(4-(4-methylpyrimidin-5-yl)phenyl)ethyl)-1,2,3-oxadiazol-3-ium-5-yl)((3-(trifluoromethyl)phenyl)carbamoyl)amide]: the EC50 was less than 100 nM.
With `NC[C@H](Cc1ccc(-c2ccccc2)cc1)[n+]1cc([N-]C(=O)Nc2cccc(C(F)(F)F)c2)on1` [Example 65, (S)-(3-(1-([1,1′-biphenyl]-4-yl)-3-aminopropan-2-yl)-1,2,3-oxadiazol-3-ium-5-yl)((3-(trifluoromethyl)phenyl)carbamoyl)amide formate], the EC50 is 1000 to 20000 nM.
For `Cc1noc(C)c1-c1ncc(C[n+]2cc([N-]C(=O)Nc3cccc(C(F)(F)F)c3)on2)cn1` [Example 174, (3-((2-(3,5-dimethylisoxazol-4-yl)pyrimidin-5-yl)methyl)-1,2,3-oxadiazol-3-ium-5-yl)((3-(trifluoromethyl)phenyl)carbamoyl)amide] the value was 100 to 1000 nM; for `CC(Cc1ccccc1)[n+]1cc([N-]C(=O)Nc2ccc(C(F)(F)F)cc2)on1` (centres unmarked) [Example 2, (3-(1-phenylpropan-2-yl)-1,2,3-oxadiazol-3-ium-5-yl)((4-(trifluoromethyl)phenyl)carbamoyl)amide], more than 20000 nM; for `Cc1ccncc1-c1ccc(C[n+]2cc([N-]C(=O)Nc3cccc(C(F)(F)F)c3)on2)cc1` [Example 85, (3-(4-(4-methylpyridin-3-yl)benzyl)-1,2,3-oxadiazol-3-ium-5-yl)((3-(trifluoromethyl)phenyl)carbamoyl)amide], less than 100 nM.
For `N#Cc1ncncc1-c1ccc(C[n+]2cc([N-]C(=O)Nc3cccc(C(F)(F)F)c3)on2)cc1` [Example 106, (3-(4-(4-cyanopyrimidin-5-yl)benzyl)-1,2,3-oxadiazol-3-ium-5-yl)((3-(trifluoromethyl)phenyl)carbamoyl)amide], the EC50 lay within 100 to 1000 nM.
The value for `Cc1cnncc1-c1ccc(C[n+]2cc([N-]C(=O)Nc3cccc(C(F)(F)F)c3)on2)cc1` [Example 93, (3-(4-(5-methylpyridazin-4-yl)benzyl)-1,2,3-oxadiazol-3-ium-5-yl)((3-(trifluoromethyl)phenyl)carbamoyl)amide] was less than 100 nM; that for `NC[C@@H](c1ccc(-c2cncnc2)cc1)[n+]1cc([N-]C(=O)Nc2cccc(C(F)(F)F)c2)on1` [Example 102, (R)-(3-(2-amino-1-(4-(pyrimidin-5-yl)phenyl)ethyl)-1,2,3-oxadiazol-3-ium-5-yl)((3-(trifluoromethyl)phenyl)carbamoyl)amide formate] was 100 to 1000 nM; that for `CC(Cc1ccccc1)[n+]1cc([N-]C(=O)Nc2cncc(C(F)(F)F)c2)on1` (centres unmarked) [Example 15, (3-(1-Phenylpropan-2-yl)-1,2,3-oxadiazol-3-ium-5-yl)((5-(trifluoromethyl)pyridin-3-yl)carbamoyl)amide] was 1000 to 20000 nM.
The value for `C[C@@H](c1ccc(-c2cncnc2)cc1)[n+]1cc([N-]C(=O)Nc2cncc(C(F)(F)F)c2)on1` [Example 77, (S)-(3-(1-(4-(pyrimidin-5-yl)phenyl)ethyl)-1,2,3-oxadiazol-3-ium-5-yl)((5-(trifluoromethyl)pyridin-3-yl)carbamoyl)amide] was 100 to 1000 nM; that for `C[C@@H](Cc1ccccc1)[n+]1cc([N-]C(=O)Nc2cccc(C(F)(F)F)c2)on1` [Example 14, (S)-(3-(1-phenylpropan-2-yl)-1,2,3-oxadiazol-3-ium-5-yl)((3-(trifluoromethyl)phenyl)carbamoyl)amide] was more than 20000 nM.
For `Cc1ncncc1-c1ccc([C@@H](C)[n+]2cc([N-]C(=O)Nc3cccc(C(F)(F)F)c3)on2)cc1` [Example 82, (R)-(3-(1-(4-(4-methylpyrimidin-5-yl)phenyl)ethyl)-1,2,3-oxadiazol-3-ium-5-yl)((3-(trifluoromethyl)phenyl)carbamoyl)amide] the value was 100 to 1000 nM; for `Cc1nn(C)c(C)c1-c1ccc(C[n+]2cc([N-]C(=O)Nc3cccc(C(F)(F)F)c3)on2)cc1` [Example 97], less than 100 nM; for `Cc1noc(C)c1-c1ccc(C[n+]2cc([N-]C(=O)Nc3cccc(C(F)(F)F)c3)on2)cn1` [Example 104, (3-((6-(3,5-dimethylisoxazol-4-yl)pyridin-3-yl)methyl)-1,2,3-oxadiazol-3-ium-5-yl)((3-(trifluoromethyl)phenyl)carbamoyl)amide], less than 100 nM.
Regarding `CC(Cc1ccccc1)[n+]1cc([N-]C(=O)Nc2cc(F)cc(C(F)(F)F)c2)on1` (centres unmarked) [Example 11, ((3-fluoro-5-(trifluoromethyl)phenyl)carbamoyl)(3-(1-phenylpropan-2-yl)-1,2,3-oxadiazol-3-ium-5-yl)amide], the EC50 was more than 20000 nM.
`COc1ncc(-c2ccc(C[n+]3cc([N-]C(=O)Nc4cccc(C#N)c4)on3)cc2)c(C)n1` [Example 114, ((3-cyanophenyl)carbamoyl)(3-(4-(2-methoxy-4-methylpyrimidin-5-yl)benzyl)-1,2,3-oxadiazol-3-ium-5-yl)amide]: the 50% effective concentration (EC50) fell in the range of 1000 to 20000 nM.
For `Cc1noc(C)c1-c1ccc(C[n+]2cc([N-]C(=O)Nc3cccc(C(F)(F)F)c3)on2)cc1` [Example 78, (3-(4-(3,5-dimethylisoxazol-4-yl)benzyl)-1,2,3-oxadiazol-3-ium-5-yl)((3-(trifluoromethyl)phenyl)carbamoyl)amide] the value was less than 100 nM; for `Cc1cc(C[n+]2cc([N-]C(=O)Nc3cccc(C(F)(F)F)c3)on2)ccc1-c1cncnc1` [Example 87, (3-(3-methyl-4-(pyrimidin-5-yl)benzyl)-1,2,3-oxadiazol-3-ium-5-yl)((3-(trifluoromethyl)phenyl)carbamoyl)amide], 100 to 1000 nM; for `CC(=O)NC[C@H](Cc1ccc(-c2ccccc2)cc1)[n+]1cc([N-]C(=O)Nc2cccc(C(F)(F)F)c2)on1` [Example 70, (S)-(3-(1-(1,1′-biphenyl-4-yl)-3-acetamidopropan-2-yl)-1,2,3-oxadiazol-3-ium-5-yl)((3-(trifluoromethyl)phenyl)carbamoyl)amide], more than 20000 nM.
For `C=C(Cc1ccccc1)[n+]1cc([N-]C(=O)Nc2cccc(C(F)(F)F)c2)on1` [Example 36, (3-(3-phenylprop-1-en-2-yl)-1,2,3-oxadiazol-3-ium-5-yl)((3-(trifluoromethyl)phenyl)carbamoyl)amide] the value was more than 20000 nM; for `Cc1cc(C[n+]2cc([N-]C(=O)Nc3cccc(C(F)(F)F)c3)on2)ccc1-c1c(C)noc1C` [Example 88, (3-(4-(3,5-Dimethylisoxazol-4-yl)-3-methylbenzyl)-1,2,3-oxadiazol-3-ium-5-yl)((3-(trifluoromethyl)phenyl)carbamoyl)amide], less than 100 nM; for `CC(C[n+]1cc([N-]C(=O)Nc2cccc(C(F)(F)F)c2)on1)c1ccccc1` (centres unmarked) [Example 28, (3-(2-phenylpropyl)-1,2,3-oxadiazol-3-ium-5-yl)((3-(trifluoromethyl)phenyl)carbamoyl)amide], 100 to 1000 nM.
The value for `Cc1ncccc1-c1ccc(C[n+]2cc([N-]C(=O)Nc3cccc(C(F)(F)F)c3)on2)cc1` [Example 92, (3-(4-(2-methylpyridin-3-yl)benzyl)-1,2,3-oxadiazol-3-ium-5-yl)((3-(trifluoromethyl)phenyl)carbamoyl)amide] was less than 100 nM.

(Values after US20250353853A1, “FLAVIVIRUS INHIBITORS” (IRBM S.P.A., priority 2022, published 2025).)
